According to patent US10173999B2, “Cyclic amine derivative and pharmaceutical use thereof” (Toray Industries, Inc., priority 2015, dated 2019):
Counter-ions that a name gives are not always drawn.

Experiments:
[1] = test system: mouse partial sciatic nerve ligation model (neuropathic pain); test: Mouse partial sciatic nerve ligation model (Seltzer model), von Frey test; format: in vivo; conditions: Comparative Example 7: oral, 7 days after ligation, 1-3 h after dosing; 0.01-1 mg/kg (Comp Ex 1), 10 mg/kg (Comp Ex 3-6, pregabalin); vs ligation+distilled water; t-test corrected by Dunnett
[2] = Stability test in monkey liver microsomes; format: in vitro ADME; conditions: pH 7.4; monkey liver microsomes 0.5 mg/mL, test compound 2 μmol/L, 37° C., 0-30 min; read-out: Hepatic intrinsic clearance, Monkey
Procedure: Experiment was performed using the compound of Example 11, Comparative Example 1 or Comparative Example 6 as a test compound and human liver microsomes (from Xenotech), monkey liver microsomes (from Xenotech), dog liver microsomes (from Xenotech) or mouse liver microsomes (from Xenotech) as the liver microsomes.
The reagents to be used in the stability test in liver microsomes were prepared as follows. A D-glucose 6-phosphate disodium salt (hereinafter referred to as G6P) was dissolved with distilled water to prepare an aqueous solution of G6P (100 mmol/L). Glucose 6-phosphate dehydrogenase (1000 units) from Yeast (hereinafter referred to as G6PDH) was dissolved with distilled water (5 mL) to prepare an aqueous solution of G6PDH (200 units/mL). MgCl2 was dissolved with distilled water to prepare an aqueous solution of MgCl2 (100 mmol/L). […]
With respect to the chromatogram of each well obtained by LC/MS analysis or LC/MS/MS analysis, the test compound residual ratio (%) at each reaction time t (min) was calculated based on the peak area at the reaction time of 0 minute as 100%. […]

[3] = test system: Canine aortic smooth muscle cells; test: Inducibility of cytoplasmic vacuolation in canine aortic smooth muscle cells; format: cell-based; parameters: key: Present: The term “present” in the tables means that cytoplasmic vacuolation was observed; Absent: the term “absent” means that cytoplasmic vacuolation was not observed; conditions: Concentration: 1.0 mmol/L, Treatment time: 24 hours
Procedure: As a test compound, the compound of Example 3, 9, 11, 12 or compounds of Comparative Examples 2 to 6 were used. Canine aortic smooth muscle cells (Canine Aortic Smooth Muscle Cells, supply source: Toyobo Co., Ltd.) or human aortic smooth muscle cells of (T/G HA-VSMG, supply source: ATCC) were treated with a test compound (1.0 or 1.2 mmol/L in concentration) for 24 hours or 2 weeks. The cells were stained with HE, immunohistochemically for LAMP-2 or toluidine blue, and thereafter the presence or absence of cytoplasmic vacuolation was determined by using an optical microscope.

Structure (SMILES) | analgesic action in von Frey test (total score) [1] | microsomal CLint at 2 μmol/L [2] | Inducibility of cytoplasmic vacuolation [3]
CN(C)C1CCN(C(=O)CCc2nccn2C)CC1 [Comparative Example 1, 1-(4-(dimethylamino)piperidin-1-yl)-3-(1-methyl-1H-imidazol-2-yl)propan-1-one hydrochloride] | statistically significant analgesic action | 2 µL/min/mg | 
CC(C)n1ccnc1CCC(=O)N1CCC(N(C)C)CC1 [Comparative Example 6, 1-(4-(dimethylamino)piperidin-1-yl)-3-(1-isopropyl-1H-imidazol-2-yl)propan-1-one hydrochloride] | statistically significant analgesic action | 6 µL/min/mg | Present
CN(C)C1CCN(C(=O)C[C@H](O)c2nccn2C)CC1 [Example 11, (S)-1-(4-(dimethylamino)piperidin-1-yl)-3-hydroxy-3-(1-methyl-1H-imidazol-2-yl)propan-1-one] |  |  | Absent
